The results in this text go back to patent publication US10071042B2, “External dermatological agent for anti-ageing” (Hayashibara Co., Ltd., priority 2014, dated 2018).

This assay deals with filaggrin protein. Kind of assay: Expression of filaggrin protein, Western blot filaggrin/actin (Experiment 3). In kind it is cell-based, human. The following applies: control = 100%. The procedure:
Then, the expression of filaggrin was induced in such a manner of further culturing the cells for another four days, while replacing the culture medium with an EpiLife medium supplemented with 2 μM, 5 μM, or 10 μM of sodium adenosine N1-oxide 5′-phosphate every three days. […] After four days culture, the resultant cells were washed with Dulbecco's phosphate buffered saline, added with 0.1 mL of an SDS sample buffer (pH 6.8) containing 62.5 mM Tris-HCl, 2% SDS, 10% glycerol, and 50 mM DTT along with a protease inhibitor, and collected with a cell scraper. The collected cells were boiled for 10 min, disrupted ultrasonically, and quantified with “Pierce BCA Protein Assay Kit”, commercialized by ThermoFisher Scientific K. K., Yokohama, Japan. A prescribed amount of the resulting disrupted cells was sampled and subjected to SDS-polyacrylamide gel electrophoresis in an amount of 100 μg/lane, and the resulting gel was transferred to a PVDF membrane. The resulting transferred PVDF membrane was blocked with “Block Ace”, commercialized by DS Pharma Biomedical Co., Ltd., Osaka, Japan, reacted with a 200-fold dilution of “AKH1”, a mouse anti-filaggrin antibody, commercialized by, Santa Cruz Biotechnology Inc., CA, USA, or a 20,000-fold dilution of “MAB1501”, a mouse actin antibody, commercialized by Chemicon International Inc., MA, USA, as a first antibody, and then reacted with a 2,000-fold dilution of “P0447”, an HRP-labeled anti-mouse immunoglobulin, commercialized by Dako Japan, Tokyo, Japan, as a secondary antibody. After the reaction, by using ECL Plus Western Blotting Detection System, commercialized by GE Healthcare Japan, Tokyo, Japan, bands were detected on “Hyperfilm ECL”, a chemiluminescent film commercialized by GE Healthcare Japan, Tokyo, Japan. The detected bands were analyzed and quantified with “Image J”, an image analyzing software. A control system with no addition of any of the test substances was provided and the increasing intensity ratio of a band of filaggrin/actin was regarded as 100%, with which data for the increased percentages of the intensity ratios of bands of filaggrin/actin of the test substances were comparatively evaluated.

Regarding `Nc1c2ncn([C@@H]3O[C@H](COP(=O)([O-])O)[C@@H](O)[C@H]3O)c2nc[n+]1[O-].[Na+]` [Sodium adenosine N1-oxide 5′-phosphate, sodium adenosine N1-oxide 5′-phosphate], the “Relative expression level of filaggrin protein (%)” value runs as follows: (2 μM) 133%; (5 μM) 206%; (10 μM) 308%.
